Reference: US4229435A, “Preparation of blood fraction” (priority 1978, dated 1980)

How the values were obtained:
Assay type in all cases: biochemical
F V = target: T1, F V (Homo sapiens, UniProt P12259); experiment: Coagulation factor V activity in plasma after reducing agent + iodoacetic acid; details: 5 min 37° C., then iodoacetic acid
T1 construct: from tissue; host or cells: human citrated blood plasma
Experimental: (§1) Human blood with anti-coagulating agent (9 parts blood+1 part 3.8% trisodium citrate) is centrifuged and the following tests with plasma were carried out:
(§2) The plasma is divided into 8 ml portions, which are preheated at 37° C. for 5 min. DTT is added in different concentrations, see table 1 below, and is incubated for 5 min. at 37° C. Then iodoacetic acid, 3 mol per mol DTT, is added, and incubation takes place for 15 min. at 37° C. The plasma samples are distributed in portions of about 0.2 ml and are immediately frozen at -70° C. Testing of different coagulation factors is made in known manner.
(§3) The plasma is divided into 8 ml portions, which are preheated at 37° C. for 5 min. DTE is added in different concentrations (see table 2), and is incubated for 5 minutes at 37° C. Then, iodoacetic acid (3 mol per mol DTE) is added and incubation is carried out for 15 minutes at 37° C. The plasma samples are distributed in portions of about 0.2 ml and are immediately frozen at -70° C. Testing of different coagulation factors is made in a manner known per se.
as §3, with “minutes. Lipoic acid” for “min. DTE”, “3),” for “2),”, “lipoic acid)” for “DTE)”
as §3, with “minutes. Mercaptoethanol” for “min. DTE”, “4),” for “2),”, “mercaptoethanol)” for “DTE)”
as §3, with “minutes. Potassium borohydride” for “min. DTE”, “5,” for “2),”, “potassium borohydride)” for “DTE)”

F VII = target: T2, F VII (Homo sapiens, UniProt P08709); experiment: Coagulation factor VII activity in plasma after reducing agent + iodoacetic acid; details: 5 min 37° C., then iodoacetic acid
T2 construct: from tissue; host or cells: human citrated blood plasma
T2 sequence (P08709 61-466): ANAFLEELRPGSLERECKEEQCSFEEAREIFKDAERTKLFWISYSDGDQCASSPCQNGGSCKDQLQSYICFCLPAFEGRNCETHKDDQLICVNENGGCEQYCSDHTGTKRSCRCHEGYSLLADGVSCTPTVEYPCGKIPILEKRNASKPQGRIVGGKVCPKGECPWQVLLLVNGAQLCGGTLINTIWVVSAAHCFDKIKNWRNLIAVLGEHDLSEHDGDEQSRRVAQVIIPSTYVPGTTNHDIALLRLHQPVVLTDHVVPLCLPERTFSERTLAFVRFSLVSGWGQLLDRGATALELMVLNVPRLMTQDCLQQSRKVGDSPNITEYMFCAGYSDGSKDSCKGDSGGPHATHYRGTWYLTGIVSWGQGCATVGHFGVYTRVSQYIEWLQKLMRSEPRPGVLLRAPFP
Experimental: as §1, §2, §3
as §3, with “minutes. Lipoic acid” for “min. DTE”, “3),” for “2),”, “lipoic acid)” for “DTE)”
as §3, with “minutes. Mercaptoethanol” for “min. DTE”, “4),” for “2),”, “mercaptoethanol)” for “DTE)”
as §3, with “minutes. Potassium borohydride” for “min. DTE”, “5,” for “2),”, “potassium borohydride)” for “DTE)”

F XI = target: T3, F XI (Homo sapiens, UniProt P03951); experiment: Coagulation factor XI activity in plasma after reducing agent + iodoacetic acid; details: 5 min 37° C., then iodoacetic acid
T3 construct: from tissue; host or cells: human citrated blood plasma
T3 sequence (P03951 19-625): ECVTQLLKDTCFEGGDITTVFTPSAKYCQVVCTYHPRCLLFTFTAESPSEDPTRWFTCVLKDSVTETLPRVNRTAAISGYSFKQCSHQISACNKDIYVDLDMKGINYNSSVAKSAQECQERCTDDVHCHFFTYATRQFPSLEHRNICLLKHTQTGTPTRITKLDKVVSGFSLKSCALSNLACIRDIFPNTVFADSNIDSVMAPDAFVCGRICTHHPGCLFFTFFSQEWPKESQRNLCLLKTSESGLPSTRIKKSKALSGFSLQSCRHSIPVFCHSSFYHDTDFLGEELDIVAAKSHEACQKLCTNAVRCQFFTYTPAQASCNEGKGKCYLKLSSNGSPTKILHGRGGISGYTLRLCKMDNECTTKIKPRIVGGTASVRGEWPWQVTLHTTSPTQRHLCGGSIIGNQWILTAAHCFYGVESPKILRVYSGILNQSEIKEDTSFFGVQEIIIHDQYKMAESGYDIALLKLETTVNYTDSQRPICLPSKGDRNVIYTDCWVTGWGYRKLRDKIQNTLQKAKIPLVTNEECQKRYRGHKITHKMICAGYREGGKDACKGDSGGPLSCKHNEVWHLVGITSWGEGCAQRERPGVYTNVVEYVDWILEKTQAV
Experimental: as §1, §2, §3
as §3, with “minutes. Lipoic acid” for “min. DTE”, “3),” for “2),”, “lipoic acid)” for “DTE)”
as §3, with “minutes. Mercaptoethanol” for “min. DTE”, “4),” for “2),”, “mercaptoethanol)” for “DTE)”
as §3, with “minutes. Potassium borohydride” for “min. DTE”, “5,” for “2),”, “potassium borohydride)” for “DTE)”

F XII = target: T4, F XII (Homo sapiens, UniProt P00748); experiment: Coagulation factor XII activity in plasma after reducing agent + iodoacetic acid; details: 5 min 37° C., then iodoacetic acid
T4 construct: from tissue; host or cells: human citrated blood plasma
T4 sequence (P00748 20-615): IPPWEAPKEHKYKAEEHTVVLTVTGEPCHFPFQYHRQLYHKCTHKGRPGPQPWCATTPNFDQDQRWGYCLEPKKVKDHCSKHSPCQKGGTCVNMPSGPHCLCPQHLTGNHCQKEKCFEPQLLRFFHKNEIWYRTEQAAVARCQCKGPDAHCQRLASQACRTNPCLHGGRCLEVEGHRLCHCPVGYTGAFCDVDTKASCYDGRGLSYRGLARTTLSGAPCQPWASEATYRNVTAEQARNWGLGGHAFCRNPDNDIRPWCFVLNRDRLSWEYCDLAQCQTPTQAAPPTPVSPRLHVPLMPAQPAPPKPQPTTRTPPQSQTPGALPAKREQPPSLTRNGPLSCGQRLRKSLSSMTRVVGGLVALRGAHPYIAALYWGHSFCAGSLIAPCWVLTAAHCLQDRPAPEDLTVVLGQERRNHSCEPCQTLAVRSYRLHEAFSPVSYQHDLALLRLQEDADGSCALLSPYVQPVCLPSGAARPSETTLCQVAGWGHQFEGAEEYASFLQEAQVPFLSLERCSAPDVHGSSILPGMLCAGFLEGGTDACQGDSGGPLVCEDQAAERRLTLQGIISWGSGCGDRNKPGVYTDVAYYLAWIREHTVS
Experimental: as §1, §2, §3
as §3, with “minutes. Lipoic acid” for “min. DTE”, “3),” for “2),”, “lipoic acid)” for “DTE)”
as §3, with “minutes. Mercaptoethanol” for “min. DTE”, “4),” for “2),”, “mercaptoethanol)” for “DTE)”
as §3, with “minutes. Potassium borohydride” for “min. DTE”, “5,” for “2),”, “potassium borohydride)” for “DTE)”

F IX = target: T5, F IX (Homo sapiens, UniProt P00740); experiment: Coagulation factor IX activity in plasma after reducing agent + iodoacetic acid; details: 5 min 37° C., then iodoacetic acid
T5 construct: from tissue; host or cells: human citrated blood plasma
T5 sequence (P00740 47-461): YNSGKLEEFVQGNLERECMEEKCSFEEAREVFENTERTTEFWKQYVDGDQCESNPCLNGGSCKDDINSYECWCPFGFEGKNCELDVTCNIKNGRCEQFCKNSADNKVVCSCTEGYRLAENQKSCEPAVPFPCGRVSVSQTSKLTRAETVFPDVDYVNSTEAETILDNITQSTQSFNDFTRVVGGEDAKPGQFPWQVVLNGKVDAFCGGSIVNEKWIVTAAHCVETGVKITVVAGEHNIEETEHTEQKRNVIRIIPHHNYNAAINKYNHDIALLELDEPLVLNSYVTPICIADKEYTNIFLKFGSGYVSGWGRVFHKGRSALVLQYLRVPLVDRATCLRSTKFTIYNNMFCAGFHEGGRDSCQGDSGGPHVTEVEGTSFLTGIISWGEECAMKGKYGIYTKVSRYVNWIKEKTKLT
Experimental: as §1, §2, §3
as §3, with “minutes. Lipoic acid” for “min. DTE”, “3),” for “2),”, “lipoic acid)” for “DTE)”
as §3, with “minutes. Mercaptoethanol” for “min. DTE”, “4),” for “2),”, “mercaptoethanol)” for “DTE)”
as §3, with “minutes. Potassium borohydride” for “min. DTE”, “5,” for “2),”, “potassium borohydride)” for “DTE)”

F II = target: T6, F II (Homo sapiens, UniProt P00734); experiment: Coagulation factor II activity in plasma after reducing agent + iodoacetic acid; details: 5 min 37° C., then iodoacetic acid
T6 construct: from tissue; host or cells: human citrated blood plasma
Experimental: as §1, §2, §3
as §3, with “minutes. Lipoic acid” for “min. DTE”, “3),” for “2),”, “lipoic acid)” for “DTE)”
as §3, with “minutes. Mercaptoethanol” for “min. DTE”, “4),” for “2),”, “mercaptoethanol)” for “DTE)”
as §3, with “minutes. Potassium borohydride” for “min. DTE”, “5,” for “2),”, “potassium borohydride)” for “DTE)”

F X = target: T7, F X (Homo sapiens, UniProt P00742); experiment: Coagulation factor X activity in plasma after reducing agent + iodoacetic acid; details: 5 min 37° C., then iodoacetic acid
T7 construct: from tissue; host or cells: human citrated blood plasma
T7 sequence (P00742 235-488 limits assumed): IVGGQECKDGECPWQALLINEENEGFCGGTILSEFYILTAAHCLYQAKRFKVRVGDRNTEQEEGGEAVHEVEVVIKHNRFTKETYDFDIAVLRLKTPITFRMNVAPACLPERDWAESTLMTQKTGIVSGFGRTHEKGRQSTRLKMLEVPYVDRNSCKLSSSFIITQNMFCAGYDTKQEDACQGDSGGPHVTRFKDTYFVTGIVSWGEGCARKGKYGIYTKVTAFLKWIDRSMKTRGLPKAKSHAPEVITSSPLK
T7 sequence (P00742 41-179 limits assumed): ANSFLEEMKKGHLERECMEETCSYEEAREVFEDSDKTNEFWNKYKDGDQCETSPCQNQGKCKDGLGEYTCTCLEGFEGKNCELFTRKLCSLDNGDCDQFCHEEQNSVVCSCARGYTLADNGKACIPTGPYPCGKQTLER
Experimental: as §1, §2, §3
as §3, with “minutes. Lipoic acid” for “min. DTE”, “3),” for “2),”, “lipoic acid)” for “DTE)”
as §3, with “minutes. Mercaptoethanol” for “min. DTE”, “4),” for “2),”, “mercaptoethanol)” for “DTE)”
as §3, with “minutes. Potassium borohydride” for “min. DTE”, “5,” for “2),”, “potassium borohydride)” for “DTE)”

[1] = test system: coagulation factors VII, IX, X, XI and XII; experiment: Effect of reducing substance added to blood or plasma on coagulation factors; details: addition to blood
factor IX = experiment: Selective decrease of coagulation activity at low temperature (Example 7); details: 0.2 mg DTT per ml plasma, 22° C.
Experimental: By addition of reducing agent, e.g. 0.2 mg DTT per ml plasma, at a low temperature, e.g. 22° C., it is possible to selectively influence the decrease of the coagulation activity in the different factors.

[2] = 0.1 mg reducing agent/ml plasma (sample C)
[3] = human, 0.1 mg reducing agent/ml plasma (sample C)
[4] = human, 0.6 mg reducing agent/ml plasma
[5] = human, Table 1 sample D, 0.1 mg DTT/ml plasma

T1 sequence (P12259 29-2224): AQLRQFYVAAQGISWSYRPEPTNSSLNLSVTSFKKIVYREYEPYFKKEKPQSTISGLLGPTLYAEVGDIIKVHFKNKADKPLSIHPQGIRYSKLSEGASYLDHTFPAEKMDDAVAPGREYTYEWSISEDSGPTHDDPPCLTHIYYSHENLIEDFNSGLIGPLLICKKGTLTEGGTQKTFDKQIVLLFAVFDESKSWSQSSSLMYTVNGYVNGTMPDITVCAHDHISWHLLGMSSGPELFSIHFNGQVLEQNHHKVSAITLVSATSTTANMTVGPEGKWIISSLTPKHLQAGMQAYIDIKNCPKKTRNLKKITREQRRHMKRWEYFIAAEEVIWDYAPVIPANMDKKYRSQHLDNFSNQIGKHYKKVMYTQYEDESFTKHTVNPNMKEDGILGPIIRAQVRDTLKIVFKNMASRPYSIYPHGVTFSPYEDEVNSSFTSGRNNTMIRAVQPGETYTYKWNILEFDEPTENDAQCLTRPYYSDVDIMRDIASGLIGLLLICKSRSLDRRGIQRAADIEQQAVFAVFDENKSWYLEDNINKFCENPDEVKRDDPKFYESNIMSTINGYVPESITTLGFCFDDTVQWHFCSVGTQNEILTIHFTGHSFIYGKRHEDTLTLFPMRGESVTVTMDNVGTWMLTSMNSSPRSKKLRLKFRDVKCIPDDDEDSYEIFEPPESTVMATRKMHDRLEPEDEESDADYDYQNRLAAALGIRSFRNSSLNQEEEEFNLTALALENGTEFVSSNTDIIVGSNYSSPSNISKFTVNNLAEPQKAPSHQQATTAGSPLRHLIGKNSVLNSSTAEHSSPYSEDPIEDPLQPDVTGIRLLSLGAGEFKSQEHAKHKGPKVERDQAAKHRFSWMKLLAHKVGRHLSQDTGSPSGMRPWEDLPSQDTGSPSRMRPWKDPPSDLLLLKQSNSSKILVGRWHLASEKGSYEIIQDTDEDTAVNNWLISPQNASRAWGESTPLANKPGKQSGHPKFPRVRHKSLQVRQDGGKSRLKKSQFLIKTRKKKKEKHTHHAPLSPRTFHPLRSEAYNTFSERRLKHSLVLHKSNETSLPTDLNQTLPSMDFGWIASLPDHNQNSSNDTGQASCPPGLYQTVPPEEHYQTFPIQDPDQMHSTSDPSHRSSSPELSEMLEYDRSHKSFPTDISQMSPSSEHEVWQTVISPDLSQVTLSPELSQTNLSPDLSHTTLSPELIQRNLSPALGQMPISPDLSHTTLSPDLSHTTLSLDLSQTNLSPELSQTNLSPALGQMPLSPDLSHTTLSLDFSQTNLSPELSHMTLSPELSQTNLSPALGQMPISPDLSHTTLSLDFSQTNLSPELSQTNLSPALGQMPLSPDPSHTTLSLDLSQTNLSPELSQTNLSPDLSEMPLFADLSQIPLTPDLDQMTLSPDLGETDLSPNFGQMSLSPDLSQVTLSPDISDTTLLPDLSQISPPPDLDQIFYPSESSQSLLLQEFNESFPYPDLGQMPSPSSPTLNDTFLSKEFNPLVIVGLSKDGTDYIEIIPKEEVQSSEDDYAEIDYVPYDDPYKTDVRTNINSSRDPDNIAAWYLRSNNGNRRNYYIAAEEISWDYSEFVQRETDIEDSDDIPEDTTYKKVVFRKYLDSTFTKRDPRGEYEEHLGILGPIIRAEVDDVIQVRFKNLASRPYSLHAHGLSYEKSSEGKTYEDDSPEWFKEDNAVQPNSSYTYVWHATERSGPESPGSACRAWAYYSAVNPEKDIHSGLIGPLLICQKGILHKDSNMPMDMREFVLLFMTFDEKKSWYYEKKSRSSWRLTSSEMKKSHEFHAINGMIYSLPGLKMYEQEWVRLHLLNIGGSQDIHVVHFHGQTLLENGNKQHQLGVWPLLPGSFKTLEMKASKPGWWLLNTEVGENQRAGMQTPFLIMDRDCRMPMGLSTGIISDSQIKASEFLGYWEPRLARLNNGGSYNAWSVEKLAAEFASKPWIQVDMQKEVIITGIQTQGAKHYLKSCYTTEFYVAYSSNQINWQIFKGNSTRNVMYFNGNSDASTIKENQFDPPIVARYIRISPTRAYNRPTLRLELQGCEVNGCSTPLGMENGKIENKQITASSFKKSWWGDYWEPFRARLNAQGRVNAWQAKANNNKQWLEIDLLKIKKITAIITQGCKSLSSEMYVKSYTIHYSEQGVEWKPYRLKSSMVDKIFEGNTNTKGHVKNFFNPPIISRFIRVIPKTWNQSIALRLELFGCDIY

Structure (SMILES): O[C@H](CS)[C@@H](O)CS [DTE, dithioerythritol]
- Coagulation factor F V (F V; [2]): 99 % of control
- Coagulation factor F V (F V; plasma + 0.2 mg reducing agent): 99 % of control
- Coagulation factor F V (F V; plasma + 0.4 mg reducing agent): 90 % of control
- activity at 100 µg/mL (F VII; [3]): 61%
- Coagulation factor F VII (F VII; plasma + 0.2 mg reducing agent): 30 % of control
- Coagulation factor F VII (F VII; plasma + 0.4 mg reducing agent): 48 % of control
- activity at 100 µg/mL (F XI; [3]): 66%
- Coagulation factor F XI (F XI; plasma + 0.2 mg reducing agent): 3 % of control
- Coagulation factor F XI (F XI; plasma + 0.4 mg reducing agent): 0 % of control
- activity at 100 µg/mL (F XII; [3]): 78%
- Coagulation factor F XII (F XII; plasma + 0.2 mg reducing agent): 1 % of control
- Coagulation factor F XII (F XII; plasma + 0.4 mg reducing agent): 0 % of control
- activity at 100 µg/mL (F IX; [3]): 61%
- Coagulation factor F IX (F IX; plasma + 0.2 mg reducing agent): 28 % of control
- Coagulation factor F IX (F IX; plasma + 0.4 mg reducing agent): 19 % of control
- activity at 100 µg/mL (F II; [3]): 90%
- Coagulation factor F II (F II; plasma + 0.2 mg reducing agent): 66 % of control
- Coagulation factor F II (F II; plasma + 0.4 mg reducing agent): 35 % of control
- activity at 100 µg/mL (F X; [3]): 56%
- Coagulation factor F X (F X; plasma + 0.2 mg reducing agent): 11 % of control
- Coagulation factor F X (F X; plasma + 0.4 mg reducing agent): 2 % of control

Structure (SMILES): O[C@H](CS)[C@H](O)CS [DTT, dithiothreitol]
- Coagulation factor F V (F V; [2]): 94 % of control
- Coagulation factor F V (F V; 0.6 mg reducing agent/ml plasma): 90 % of control
- Coagulation factor F V (F V; Table 1 sample D, 0.1 mg DTT/ml plasma): 90 % of control
- Coagulation factor F V (F V; plasma + 0.4 mg reducing agent): 85 % of control
- activity at 100 µg/mL (F VII; [3]): 87%
- activity at 600 µg/mL (F VII; [4]): 0%
- activity at 100 µg/mL (F VII; [5]): 21%
- Coagulation factor F VII (F VII; plasma + 0.4 mg reducing agent): 6 % of control
- activity at 100 µg/mL (F XI; [3]): 47%
- activity at 600 µg/mL (F XI; [4]): 0%
- activity at 100 µg/mL (F XI; [5]): 9%
- Coagulation factor F XI (F XI; plasma + 0.4 mg reducing agent): 0 % of control
- activity at 100 µg/mL (F XII; [3]): 78%
- activity at 600 µg/mL (F XII; [4]): 0%
- activity at 100 µg/mL (F XII; [5]): 18%
- Coagulation factor F XII (F XII; plasma + 0.4 mg reducing agent): 0 % of control
- activity at 100 µg/mL (F IX; [3]): 129%
- activity at 600 µg/mL (F IX; [4]): 0%
- activity at 100 µg/mL (F IX; [5]): 16%
- Coagulation factor F IX (F IX; plasma + 0.4 mg reducing agent): 8 % of control
- content of coagulation factors VII, IX, X, XI and XII in the resulting plasma [1]: reduces the content of the coagulation factors VII, IX, X, XI and XII to a large extent
- activity at 100 µg/mL (F II; [3]): 101%
- activity at 600 µg/mL (F II; [4]): 33%
- activity at 100 µg/mL (F II; [5]): 69%
- Coagulation factor F II (F II; plasma + 0.4 mg reducing agent): 41 % of control
- activity of factor IX compared with factor X (factor IX): the activity of factor IX is not influenced in as high a degree as the activity of factor X
- activity at 100 µg/mL (F X; [3]): 59%
- activity at 600 µg/mL (F X; [4]): 0%
- activity at 100 µg/mL (F X; [5]): 6%
- Coagulation factor F X (F X; plasma + 0.4 mg reducing agent): 0 % of control
